Data reported in US10035799B2, “COMT inhibiting methods and compositions” (Lieber Institute for Brain Development, priority 2015, dated 2018).

Target: T1, catechol-O-methyltransferase (COMT) (Homo sapiens, UniProt P21964)
T1 construct: M51A variant) was expressed in HEK 293F cells
T1 sequence (P21964 52-271 limits assumed): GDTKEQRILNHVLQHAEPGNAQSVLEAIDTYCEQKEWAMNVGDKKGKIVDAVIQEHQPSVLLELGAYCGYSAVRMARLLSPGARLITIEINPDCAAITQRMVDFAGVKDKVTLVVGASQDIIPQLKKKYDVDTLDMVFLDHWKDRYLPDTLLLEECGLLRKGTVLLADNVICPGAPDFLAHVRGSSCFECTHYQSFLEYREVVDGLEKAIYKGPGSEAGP
Test: COMT inhibition assay (HTRF, production of S-adenosyl homocysteine)
Format: biochemical
Conditions: recombinant human COMT, HTRF SAH production; MB-COMT or S-COMT not stated for Table 1
In short: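 SAH formed from SAM (20 μM) measured by HTRF with SAH standard curve; pIC50 from 4-parameter fit. MB-COMT (M51A, HEK293F membranes, 62 ng/well): 1.5 μM dopamine, 40 min, 37° C.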

Activity range (pIC50, COMT inhibition) | SMILES
+ (a pIC50 of from about 4.5 to 6) | CCS(=O)(=O)c1ccc(O)c2ncccc12 [Example 33, 5-ethylsulfonylquinolin-8-ol]
+++ (a pIC50 of above about 7) | Cc1ccccc1C1CCCN1S(=O)(=O)c1ccc(O)c2ncccc12 (stereo not drawn) [Example 71, 5-[2-(o-tolyl)pyrrolidin-1-yl]sulfonylquinolin-8-ol]
+++ (a pIC50 of above about 7) | Cc1ccc(S(=O)(=O)c2cc(F)c(O)c3ncccc23)cc1 [Example 110, 7-fluoro-5-(p-tolylsulfonyl)quinolin-8-ol]
+++ (a pIC50 of above about 7) | COc1ccc(C2CCCN2S(=O)(=O)c2ccc(O)c3ncccc23)cc1 (stereo not drawn) [Example 77, 5-[2-(4-methoxyphenyl)pyrrolidin-1-yl]sulfonylquinolin-8-ol]
+++ (a pIC50 of above about 7) | O=S(=O)(c1ccc(O)c2ncccc12)N1CCN(Cc2ccccc2)CC1 [Example 43, 5-(4-benzylpiperazin-1-yl)sulfonylquinolin-8-ol]
+ (a pIC50 of from about 4.5 to 6) | Cc1cc(S(=O)(=O)N2CCN(Cc3ccc(F)cc3)CC2)c2cccnc2c1O [Example 114, 5-[4-[(4-fluorophenyl)methyl]piperazin-1-yl]sulfonyl-7-methyl-quinolin-8-ol]
+++ (a pIC50 of above about 7) | O=S(=O)(c1ccc(O)c2ncccc12)N1CCC(Cc2ccccc2)CC1 [Example 84, 5-[(4-benzyl-1-piperidyl)sulfonyl]quinolin-8-ol]
+ (a pIC50 of from about 4.5 to 6) | Cc1cc(S(=O)(=O)N2C[C@@H](F)[C@H](F)C2)c2cccnc2c1O [Example 116, 5-[(3R,4R)-3,4-difluoropyrrolidin-1-yl]sulfonyl-7-methyl-quinolin-8-ol]
+++ (a pIC50 of above about 7) | Cc1cc(S(=O)(=O)N2CCCC2)c2cccnc2c1O [Example 111, 7-methyl-5-pyrrolidin-1-ylsulfonyl-quinolin-8-ol]
+++ (a pIC50 of above about 7) | O=S(=O)(c1ccc(O)c2ncccc12)N1Cc2ccccc2C1 [Example 47, 5-isoindolin-2-ylsulfonylquinolin-8-ol]
+++ (a pIC50 of above about 7) | Cc1cc(C)cc(S(=O)(=O)c2ccc(O)c3ncccc23)c1 [Example 4, 5-(3,5-dimethylphenyl)sulfonylquinolin-8-ol]

More lines, now with the values behind:

SMILES | Activity range (pIC50, COMT inhibition)
O=S(=O)(c1ccc(O)c2ncccc12)N1CCCC1Cc1ccccc1 (stereo not drawn) [Example 75, 5-(2-benzylpyrrolidin-1-yl)sulfonylquinolin-8-ol] | +++ (a pIC50 of above about 7)
O=S(=O)(c1cc(F)c(O)c2ncccc12)N1CCN(Cc2ccc(F)cc2)CC1 [Example 122, 7-fluoro-5-[4-[(4-fluorophenyl)methyl]piperazin-1-yl]sulfonyl-quinolin-8-ol] | ++ (a pIC50 of from about great than 6 to 7)
O=S(=O)(c1cc(Cl)cc(Cl)c1)c1ccc(O)c2ncccc12 [Example 8, 5-(3,5-dichlorophenyl)sulfonylquinolin-8-ol] | ++ (a pIC50 of from about great than 6 to 7)
C[C@H]1CCCN1S(=O)(=O)c1cc(Cl)c(O)c2ncccc12 [Example 118, 7-chloro-5-[(2S)-2-methylpyrrolidin-1-yl]sulfonyl-quinolin-8-ol] | ++ (a pIC50 of from about great than 6 to 7)
CN(Cc1cccnc1)S(=O)(=O)c1ccc(O)c2ncccc12 [Example 54, 8-hydroxy-N-methyl-N-(3-pyridylmethyl)quinoline-5-sulfonamide] | +++ (a pIC50 of above about 7)
O=S(=O)(c1ccc(O)c2ncccc12)N1CCCC1c1ccncc1 (stereo not drawn) [Example 79, 5-[2-(4-pyridyl)pyrrolidin-1-yl]sulfonylquinolin-8-ol] | ++ (a pIC50 of from about great than 6 to 7)
O=S(=O)(c1ccc(O)c2ncccc12)N1CCN(c2ccc(Cl)cn2)CC1 [Example 69, 5-[4-(5-chloro-2-pyridyl)piperazin-1-yl]sulfonylquinolin-8-ol] | ++ (a pIC50 of from about great than 6 to 7)
O=S(=O)(c1ccc(C(F)(F)F)cc1)c1ccc(O)c2ncccc12 [Example 11, 5-[4-(trifluoromethyl)phenyl]sulfonylquinolin-8-ol] | +++ (a pIC50 of above about 7)
O=S(=O)(c1ccc(O)c2ncccc12)N1CCCC1c1ccccn1 (stereo not drawn) [Example 80, 5-[2-(2-pyridyl)pyrrolidin-1-yl]sulfonylquinolin-8-ol] | ++ (a pIC50 of from about great than 6 to 7)
CN(C)CCN(Cc1ccccc1)S(=O)(=O)c1ccc(O)c2ncccc12 [Example 57, N-benzyl-N-(2-dimethylaminoethyl)-8-hydroxy-quinoline-5-sulfonamide] | ++ (a pIC50 of from about great than 6 to 7)
O=S(=O)(c1ccc(O)c2ncccc12)N1CCCC1c1ccc(F)cc1 (stereo not drawn) [Example 74, 5-[2-(4-fluorophenyl)pyrrolidin-1-yl]sulfonylquinolin-8-ol] | +++ (a pIC50 of above about 7)
COCCCN1CCN(S(=O)(=O)c2ccc(O)c3ncccc23)CC1 [Example 89, 5-[4-(3-methoxypropyl)piperazin-1-yl]sulfonylquinolin-8-ol] | ++ (a pIC50 of from about great than 6 to 7)
CCN(CC)S(=O)(=O)c1ccc(O)c2ncccc12 [Example 68, N,N-diethyl-8-hydroxy-quinoline-5-sulfonamide] | ++ (a pIC50 of from about great than 6 to 7)
O=S(=O)(c1ccc(O)c2ncccc12)N1CCOCC1 [Example 64, 5-(4-morpholin-1-yl)sulfonylquinolin-8-ol] | ++ (a pIC50 of from about great than 6 to 7)

System: not given
Test: not given
Conditions: Nutt and Fellman 1984; cited from earlier work

SMILES | percentage of exogenously administered L-DOPA that reaches the brain
N[C@@H](Cc1ccc(O)c(O)c1)C(=O)O [L-DOPA] | ~1%

System: not given
Test: not given
Conditions: Russ, et al. 1999; cited from earlier work

SMILES | brain penetration
Cc1ccc(C(=O)c2cc(O)c(O)c([N+](=O)[O-])c2)cc1 [tolcapone] | low but measurable
CCN(CC)C(=O)/C(C#N)=C/c1cc(O)c(O)c([N+](=O)[O-])c1 [entacapone] | negligible

Target: T2, aromatic amino acid decarboxylase (AAAD) (Homo sapiens, UniProt P20711)
T2 sequence (P20711 1-480): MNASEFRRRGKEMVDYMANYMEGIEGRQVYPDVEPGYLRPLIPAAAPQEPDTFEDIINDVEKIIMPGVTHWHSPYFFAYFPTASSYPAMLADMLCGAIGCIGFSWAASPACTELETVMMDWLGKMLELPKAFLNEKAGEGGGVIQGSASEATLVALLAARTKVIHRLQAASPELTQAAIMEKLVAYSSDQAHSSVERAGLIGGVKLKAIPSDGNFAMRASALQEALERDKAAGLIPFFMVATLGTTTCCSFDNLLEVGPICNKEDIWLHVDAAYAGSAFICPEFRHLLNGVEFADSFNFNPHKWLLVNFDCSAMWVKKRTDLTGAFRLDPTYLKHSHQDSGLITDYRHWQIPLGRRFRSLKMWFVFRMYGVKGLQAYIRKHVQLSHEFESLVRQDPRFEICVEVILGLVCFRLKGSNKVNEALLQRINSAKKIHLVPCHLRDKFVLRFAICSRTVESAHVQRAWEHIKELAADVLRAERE
Test: not given
Conditions: given with L-DOPA; Nutt, Woodward et al. 1985; cited from earlier work

SMILES | reduction of the efficacious L-DOPA dose
C[C@@](Cc1ccc(O)c(O)c1)(NN)C(=O)O [Carbidopa] | 60-80%

System: not given
Test: not given
Conditions: clinical use; Olanow and Watkins 2007; cited from earlier work

SMILES | liver injury
Cc1ccc(C(=O)c2cc(O)c(O)c([N+](=O)[O-])c2)cc1 [tolcapone] | serious liver injury, including three deaths
